According to PubChem BioAssay (NCI):
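Five concentrations, 48 hours, 96-well plates. Definition used: TGI = concentration required for complete inhibition of growth.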

Columns and labels:
Assay in all cases: inhibition of tumour cell growth, NCI panel, 48 h
[1] = system: DMS 114 small cell lung
[2] = system: SNB-78 CNS
[3] = system: DLD-1 colon
[4] = system: DMS 273 small cell lung
[5] = system: XF 498 CNS
[6] = system: KM20L2 colon
[7] = system: RXF-631 renal

Row | SMILES | TGI [1] | TGI [2] | TGI [3] | TGI [4] | TGI [5] | TGI [6] | TGI [7]
1 | S=c1sc2c(Cl)ncnc2n1-c1ccccc1 | 28.1 µM | 33.4 µM | 24.2 µM | 2.83 µM | 28.7 µM | 34.2 µM | –
2 | O=C(Nc1cccc2ccccc12)Oc1ccccc1C1CCCCC1 | 41.9 µM | 57.9 µM | 44.8 µM | 38.1 µM | – | 47.5 µM | 36.7 µM
3 | O=C(CSc1nnc(-c2ccc(N=Cc3ccc(Cl)cc3)cc2)o1)Nc1ccccc1Cl | > 100 µM | > 100 µM | – | > 100 µM | > 100 µM | > 100 µM | –
4 | O=C(O)CCCl | – | > 5000 µM | > 5000 µM | > 5000 µM | – | – | –
5 | C[N+]1(C)CCCC1C(=O)[O-] (configuration not stated) | > 100 µM | > 100 µM | > 100 µM | > 100 µM | > 100 µM | > 100 µM | –
6 | COC(=O)C(=O)C(C(=O)Nc1cccc(C)c1C)C1Sc2ccccc2NC1=O (configuration not stated) | 19 µM | > 25 µM | > 25 µM | > 25 µM | > 25 µM | > 25 µM | –
7 | C=C1C(=O)OC2/C=C(\C)C(OC(C)=O)C3OC3C(C)(O)CC(OC(=O)/C(C)=C/C)C12 (configuration not stated) | 20 µM | 30.5 µM | – | 60 µM | 18.2 µM | 15.2 µM | –
